Data on three compounds can be found in patent US5330992A, “1-cyclopropyl-4-pyridyl-quinolinones” (priority 1992, dated 1994).

Common to all, as to set-up: species or system mouse
Data set [1] in a line: In vivo antitumor assay, Colo38(sc). To be noted: mouse, in vivo, drug route iv, Ex 26 qd 3-5 bid 6-11, Ex 30 and 33 qd 3-11. The text has this: (§1) Mice: Inbred: C3H/He and NCR-nu; and Hybrids: B6D2Fl (C57BL/6 females X DBA/2 males, CD2Fl (Balb/c females X DBS/2 males) and B6x C3fl (C57BL/6 x C3H) were bred at Wayne State University from strained obtained from the Frederick Cancer Research Facility, Frederick, Md. or purchased from commercial suppliers.
(§2) Tumors: Murine Tumor: P388 and an adriamycin-resistant (ADR) subline P388/ADR leukemia and the following transplantable solid tumors of mice were used for in Vivo testing: B16 melanoma (B16), pancreatic ductal adenocarcinoma No. 03 (Panc 03), colon adenocarcinoma No. 38 (colo 38), mammary ductal adenocarcinoma No. 16/C (Mam16) and an adriamycin-resistantsubline Mam16C/ADR. Human tumor: A single human tumor, mammary carcinoma MX-1 (MX1) was used for in vivo testing. All tumors are in the Developmental Therapeutics Program frozen tumor respository, maintained by the Biological Testing Branch, Frederick Md. Each has a detailed description, code identification number, and list of references at the National Tumor Repository. Murine tumors were maintained in the mouse strain of origin and were transplanted in the appropriate F1 hydrid (or the strain of origin) for therapy trials. Human mammary carcinoma MX-1 MX1) was maintained as a subcutaneous implant in either athymic Swiss (Cr: NIH(S)-nu) or athymic random bred (NCR-nu) mice and transplanted in NCR-nu for therapy trials.
(§3) Chemotherapy: For pancreatic ductal adenocarcinoma No. 3, colon adenocarcinoma No. 38 (colo38), lung carcinoma No. 12 (LC12) and both adriamycin-sensitive (RP) and -resistant ADR) mammary ductal adenocarcinoma No. 16 (Mam16) tumors, the following methods were used to help ensure a more uniform tumor burden per mouse (thus reducing the requirement for greater numbers of mice per group), bilateral tumor implants were used. The animals necessary to begin an experiment were pooled, implanted bilaterally s.c. on day zero with 30-60-mg tumor fragments using a 12-gauge trocar, and again pooled before randomization to the various treatment and control groups. Chemotherapy was started within three days after tumor implantation while the number of cells per mouse was relatively small (1×10^7 […]).
(§4) Quantitative end points used assess antitumor activity included % Increased Life Span (% ILS), Tumor Cell Kill (Log10 kill), and Tumor Growth Inhibition (T/C). Long Term Survivors (45 or 60 day) were excluded from calculations of % ILS and Tumor Cell Kill.
(§5) Tumors were measured with a caliper once or twice weekly (as needed) until either tumors exceeded 1600 mg or cure was assured. Tumor weights were estimated from two-dimensional measurements: Tumor Weight (mg)=(a×b^2) / 2, where a and b are the tumor length and width (nun) respectively. Measurements were carried out simultaneously in both treatment and control groups. When the control group tumors reached approximately 750-1500 mg in size (median of group), the median tumor weight of each group was determined (including zeros). The T/C value in percent is an indiation of antitumor effectiveness. The % T/C was calculated from the following formula for solid murine tumor models: [formula] where T and C are median tumor weights of the treatment and control groups, respectively. A T/C equal to or less than 42% is considered significant antitumor activity. A T/C value <10% is indicative of a high degree of antitumor activity and is the level used by National Cancer Institute to justify further development if other requirements are met (termed DN-2 level activity). By convention the T/C value for the mammary carcinoma MX-1 models is calculated by the parameter of change in tumor weight. The % T/C was calculated from the following formula for MX-1 models [formula] where ΔT and ΔC are the change in mean tumor weight of the test and control groups, respectively, and T (initial) is the initial mean tumor weight of the test group. […] A reproducible % T/C ≤10 is considered significant activity.

The subject of data set [2] is colon adenocarcinoma No. 38 (colo 38). In words: In vivo antitumor assay, Colo38(sc). As to conditions: drug route iv, Ex 26 qd 3-5 bid 6-11, Ex 30 and 33 qd 3-11.
Text: as §1, §2, §3, §4, §5

A short description of data set [3]: In vivo antitumor assay, Panc03(sc). To be noted: mouse, in vivo.
Text: as §1, §2, §3, §4
(§6) The log10 cell kill was calculated from the following formula: [formula] where T-C is the tumor difference in the median day of death between the treated (T) and the control (C) groups and Td is the tumor doubling time (in days), the latter estimated from the best fit straight line from a log-linear growth plot of the control-group tumors in exponential growth. The conversion of the T-C values to log10 cell kill is possible because the Td for tumors regrowing post-treatment approximated the Td values of the tumors in untreated control mice.
Tumors were measured with a caliper once or twice weekly (as needed) until either tumors exceeded 1600 mg or cure was assured. Tumor weights were estimated from two-dimensional measurements: Tumor Weight (mg)=(a×b^2) / 2, where a and b are the tumor length and width (nun) respectively. Measurements were carried out simultaneously in both treatment and control groups. When the control group tumors reached approximately 750-1500 mg in size (median of group), the median tumor weight of each group was determined (including zeros). The T/C value in percent is an indiation of antitumor effectiveness. The % T/C was calculated from the following formula for solid murine tumor models: [formula] where T and C are median tumor weights of the treatment and control groups, respectively. A T/C equal to or less than 42% is considered significant antitumor activity. […]

A short description of data set [4]: In vivo antitumor assay, B16(ip). To be noted: mouse, in vivo, drug route ip, qd 1,5,9.
Text: as §1, §2
(§7) For P388 and P388/ADR leukemia studies the tumor cells were implanted either IP or intravenously (IV) on day zero and treatment was started on day one. For B16 melanoma (B16) studies, the tumor cells were implanted IP on day zero and treatment was started on day one. Tirered controls were also included to facilitate the calculation of tumor cell kill. For mammary carcinoma MX-1 studies, tumors were implanted with 1) subcutaneously (sc) (14-mg fragment of s.c. donor tumor) in the axillary region or 2) under the subrenal capsule (src) (10×10×10 ocular micrometer unit fragment of s.c. donor tumor). Treatment started on the day after subrenal capsule tumor implant or when the subcutaneous tumor implant had reached 100-700 mg.
as §4
(§8) Endpoints were calculated as follows: % ILS [formula] where Dt is the median day of death for treated and Dc is the median day of death for control groups. A % ILS ≥20 or ≥25 for P388 and B16 intraperitoneal models, respectively, is indicative of a significant degree of antitumor activity. A % ILS ≥75 or ≥50 for P388 and B16 intraperitoneal models, respectively, is indicative of a high degree of antitumor activity and is the level used by National Cancer Institute to justify further development if other requirements are met (termed DN-2 level activity). Minimum quantitative activity limits for additional P388 models (e.g. P388/ADR and P388, IJV) have not been defined. However, the activity limits specified for the intraperitoneal models may be applied as in the majority of instances these models are found to be signficantly […] challenging.
as §6

Data set [5] deals with B16 melanoma (B16). Nature of the data set: In vivo antitumor assay, B16(ip). To be noted: drug route ip; for ILS %: qd 1,5,9, increased life span; for LOG KILL: qd 1,5,9, log10 cell kill.
Text: as §1, §2, §7, §4, §8, §6

Where [6] appears, read: drug route iv, Ex 26 qd 4-11, Ex 30 qd 3-11, Ex 33 qd 3-4,7,10, read-out: MTD.

With `Cc1cc(-c2c(F)cc3c(=O)c(Cc4ccc(O)cc4O)cn(C4CC4)c3c2F)cc(C)n1` [Example 33], the MTD was determined as 33 mg/kg in data set [1], 19 mg/kg in data set [3] (setting [6]) and 19 mg/kg in data set [4]. In data set [2], the T/C % is on record as greater than 100%. In addition, the ILS % in data set [5] is given as 94%. The “LOG KILL” value in data set [5] came out at 2.2.

Turning to `Cc1cc(-c2c(F)cc3c(=O)c(Cc4c(O)cccc4O)cn(C4CC4)c3c2F)cc(C)n1` [Example 26, 1-Cyclopropyl-6,8-difluoro-7-[2,6-dimethyl-4-pyridinyl]-3-[2,6-dihydroxyphenylmethyl]-1,4-dihydroquinoline-4-one], the MTD in data set [1] came to 30 mg/kg; in data set [3] (setting [6]), 12 mg/kg; in data set [3] (drug route sc, Ex 26 qd 3,5-7 bid 4, read-out: MTD), 840 mg/kg; in data set [4], 8.1 mg/kg. In data set [2], this compound gave a T/C % of 46%. The compound further returned an ILS % in data set [5] of 94%. For the same compound, in data set [5], the “LOG KILL” value was 2.2.

Consider `Cc1cc(-c2c(F)cc3c(=O)c(Cc4ccccc4O)cn(C4CC4)c3c2F)cc(C)n1` [Example 30], for which the MTD in data set [1] came to 148 mg/kg; in data set [3] (setting [6]), 235 mg/kg; in data set [4], 304 mg/kg. The compound further gave a T/C % in data set [2] of 42%. In data set [5], this compound yielded an ILS % of 88%. In data set [5], the “LOG KILL” value came to 2.0.
